Results from patent publication US20150004620A1, “METHOD OR DEVICE FOR IDENTIFYING INHIBITOR OF EPITHELIAL MESENCHYMAL TRANSITION” (Agency for Science, Technology and Research, priority 2011, published 2015).

How the values were obtained:
Assay type in all cases: cell-based
[1] = tested on: ovarian carcinoma cell lines; experiment: Cell movement tracking time-lapse videoscopy; settings: 2 μM for 48 hours, tracked for 24 hours
Method: Cells were maintained in RMPI supplemented with 10% fetal bovine serum and 1× pen-strep. Cells were grown to 80% confluency in tissue culture flasks prior to plating. Cells were trysinized and plated onto a 12-well plate (BD) at a low density of 2000 cells per well in 1 ml of RMPI. Each ovarian cell line was seeded into two wells of a 12 well tissue culture plate. For each ovarian cell line, one of the two wells was treated with 2 μM AZD0530 and the other well treated with 0.02% DMSO control for 48 hours. Cells were imaged using a time-lapse video microscope incubator system (Leica) controlled by Metamorph software (Molecular Devices). Time-lapse images were taken at 5 min intervals for 24 hours and saved as tiff format. Each individual tiff images were compiled into stack images using the stack creation function in Metamorph. Each cell was tracked using the particle tracking function in Metamorph software. The tracking function detected and recorded the x and y coordinates of the cell being tracked for each image in the stack. The x and y coordinates were used to plot the track of the individual cell in excel. The total distance travelled, displacement and average velocity of the tracked cell were then tabulated.

[2] = tested on: EGF-induced EMT in NBT-II cells; experiment: EMT spot migration assay, EGF-induced; settings: EGF-induced EMT (20 ng/ml EGF), NBT-II cells, CDR dose response from 6.67 μM; read-out: Cell Dispersion IC 50, EGF
Method: (§1) NBT-II cells were stably transfected with mcherry-fluorescent H2B and maintained in DMEM supplemented with 10% fetal bovine serum (FBS, Thermo Scientific), 1 μg/ml puromycin (Sigma) and 100 units/ml penicillin-streptomycin (1× pen-strep, Invitrogen). Cells were grown to 80% confluency in tissue culture flasks prior to plating. Cells were trypsinized and concentrated to a density of 5×10^6 cell/ml in CO2-independent medium (Invitrogen) supplemented with 10% FBS. The cell suspension was then evenly dispersed into the wells of two columns of a 96-well V-bottom plate. Using a robotic liquid-handling station (Bravo, Agilent Technologies), 0.5 μl of cell suspension was transferred from the two columns of the cell suspension-loaded plate and deposited into the center of the wells of two columns of a 96-well clear bottom, black assay plate (Corning). This process was repeated six times so that all 96 wells of the assay plate were deposited with a cell suspension spot. The plate was then sealed to minimize evaporation of the cell suspension spots and transferred to a 37° C., 5% CO2 incubator to allow for cells to attach to the culture surface. After 1 hour, the plate was gently washed with medium once to remove unattached cells, refreshed with 100 μl of assay medium (DMEM supplemented with 10% FBS and 1× pen-strep), and then further incubated to allow for cell-cell contacts to establish in the cell colonies.
(§2) Four tiled, non-overlapping images were acquired around the center of each well, and were then stitched together during image analysis to generate a montage covering an area of 3.2 mm×3.2 mm. These images (T1) represent the initial state of the cell colonies before EMT induction.
(§3) After the T1 images were acquired, 1 μl of test compounds were transferred from compound stock plates and added to the assay plates. Appropriate negative controls (1 μl DMSO) and positive controls (1 μl 1.0 mM compound in DMSO) were also added into columns 1 and 12 of each assay plate, respectively. […] The cultures were then further incubated overnight.
(§4) The next day, 50 μl of growth factor-containing medium was added to each well of the assay-plates. For each of the growth factor-induced EMT spot migration assays, the final growth factor concentrations in each well is optimized to be 20 ng/ml EGF (Sigma), 4 ng/ml HGF (Calbiochem) or 150 ng/ml IGF-1 (R&D Systems), respectively. The cultures were then incubated for another 24 hours, to allow for EMT and sufficient cell motility/dispersion to occur in the cell colonies.
(§5) Finally, the cell colonies were imaged again using the microplate imager, as described above. These images (T2) represent the final state of the cell colonies after compound treatment and EMT induction. The acquired T1 and T2 image sets for each assay plate were then sent for image analysis.
(§6) The acquisition of each well was obtained by four adjacent field images with no interstice in between. Each field image was loaded and nuclei were initially segmented independently of other fields to prevent artifact at the field border. Nuclei segmentation was achieved by combining a wavelet transform which is robust to noise and unhomogeneous background, and a watershed algorithm based on intensities to split nuclei clusters. Mask of nuclei segmentation of the different fields were then stitched together in order to obtain a large segmentation of the whole well. Cell bodies were estimated by applying a morphological dilation on the nucleus segmentation using a disk of 30 pixels (48 μm) in diameter. In cells that are contiguous, such as in a cell colony, nuclei segmentation dilation will result in the formation of continuous region areas with surrounding cells which can then be identified as colonies.
(§7) Total cell number and spreading coefficient values for each well were then exported into an Excel sheet.

MMP-13 = experiment: Western blot of MMP-13 in ovarian carcinoma cell lines; settings: panel of ovarian carcinoma cell lines, 2 μM for 48 hours vs 0.02% DMSO
Method: (§8) FIG. 11 is a western blot image showing the increase in epithelial marker E-cadherin expression and the decrease of mesenchymal marker MMP-13 expression in panel of ovarian carcinoma cell lines treated with AZD0530. Cell lines were treated with 2 μM AZD0530 or 0.02% DMSO control for 48 hours. Thus, FIG. 11 provides an example of possible downstream analysis that may be conducted subsequent to the detection of possible inhibitor by the method as described herein. In this figure, western blot analysis was used to validate the possible inhibitor detected by the method as described herein.
(§9) For western blot experiments with other cell lines, cells are treated either with AZD0530, such as 2 μM AZD0530 or DMSO, such as 0.02% DMSO control for 48 h. The samples are then processed using the same procedure as described above. The samples were probed with MMP-13, E-cadherin, plakoglobin (Cell Signaling), α-tubulin, and β-actin (Cell Signaling) antibodies.

plakoglobin = experiment: Western blot of plakoglobin in cell lines; settings: 2 μM for 48 hours vs 0.02% DMSO
Method: as §8, with “10” for “11”, “plakoglobin” for “E-cadherin”, “induced by AZD0530” for “and the decrease of mesenchymal marker MMP-13 expression”, “in” for “in panel of ovarian carcinoma”, “lines.” for “lines treated with AZD0530.”
as §9

[3] = tested on: ovarian carcinoma cell lines; experiment: Phase contrast cell morphology, ovarian carcinoma cell lines; settings: A2780J, DOV13 and HEY cell lines, 2 μM for 48 hours vs 0.02% DMSO
Method: Cell lines were treated with 2 μM AZD0530 or 0.02% DMSO control for 48 hours. Scale bar is 200 μm. Thus, FIG. 9 provides an example of how the method as described herein may be validated by the use of various ovarian carcinoma cell lines.

[4] = tested on: IGF-1-induced EMT in NBT-II cells; experiment: EMT spot migration assay, IGF-1-induced; settings: IGF-1-induced EMT (150 ng/ml IGF-1), CDR dose response from 6.67 μM, read-out: Cell Dispersion IC 50, IGF-1
Method: as §1, §2, §3, §4, §5, §6, §7

[5] = panel of ovarian carcinoma cell lines

SMILES: CN1CCN(CCOc2cc(OC3CCOCC3)c3c(Nc4c(Cl)ccc5c4OCO5)ncnc3c2)CC1 [AZD0530]
- Mobility (individual cell tracks) ([1]; ovarian carcinoma cell lines): suppression of the mobility
- Average displacement cells migrate [1, 5]: decrease
- Average velocity of cell migrations [1, 5]: decrease
- IC50 [2]: 560 nM
- Mesenchymal marker MMP-13 expression (MMP-13): decrease
- Epithelial marker plakoglobin expression (plakoglobin): increase
- Cell morphology (phase contrast) [3]: compaction of cell morphology
- IC50 [4]: 240 nM
